The values that follow come from patent US8758743B2, “Compositions containing coenzyme Q10” (Taiyo Kagaku Co., Ltd., priority 2003, dated 2014).

Data set [1] in a line: Storage of powder products at 50° C. under light shielding (Test Example 1-1). In kind it is physicochemical. As to the method:
In addition, the powder products of Examples 1-6 and 1-7 and a coenzyme Q10 itself (manufactured by Kanegafuchi Kagaku Kogyo Kabushiki Kaisha) were used as test samples, and the storage states before the beginning of storage, and after storage at 50° C. for 4 weeks or 12 weeks passed under light shielding were confirmed.

Data set [2] in a line: Bioabsorbability Test 2 of coenzyme Q10 (Test Example 1-4). As to conditions: male, SD, rat, plasma, po, 5 mg/kg; for concentration at 1 h: 1 hour after administration; for AUC: read-out: AUC1-24. Type of data set: in vivo. How it is done:
The bioabsorbability of a coenzyme Q10 was evaluated by administering each of the coenzyme Q10-containing composition of Example 1-2 and a coenzyme Q10 itself to a rat as a test sample, sampling blood over time, and measuring the coenzyme Q10 concentration in the plasma, and the bioabsorbability was compared among the test samples.
The feeding conditions were set in 2 ways; a case where rats were allowed to take the feed ad libitum (satiation), and a case where rats were made to fast since the early-evening of the previous day of the test, and where the rats were fed again after blood sampling of 8 hours after the administration of the test sample.
The solution of distilled water in Tests A and A′ was prepared by adding the coenzyme Q10-containing composition of Example 1-2 to distilled water and mixing the mixture. The suspension of a 0.5(w/v)% aqueous CMC—Na solution in Tests B and B′ was prepared by adding a coenzyme Q10 itself to a 0.5(w/v)% aqueous CMC-Na solution and subjecting the mixture to ultrasonication.
The conditions and the like for this test are listed hereinbelow. • Rat: SD line, 7-week old, male, n=4 • Dose: The test samples calculated as 5 mg of a coenzyme Q10 per 1 kg of the body weight of a rat were administered. • Amount of administered liquid: The suspension or the solution used in Tests A, A′, B, or B′ was administered in an amount of 5 mL per 1 kg of the body weight of a rat.
Method of administration, blood sampling, time of blood sampling, processing of blood and method of quantification were same as those in the above-mentioned Test Example 1-3.

Where two headings read alike, the source gives them in different places.

In the case of `COC1=C(OC)C(=O)C(C/C=C(\C)CC/C=C(\C)CC/C=C(\C)CC/C=C(\C)CC/C=C(\C)CC/C=C(\C)CC/C=C(\C)CC/C=C(\C)CC/C=C(\C)CCC=C(C)C)=C(C)C1=O` [Coenzyme Q10 Powder, coenzyme Q10], the “Storage State” value in data set [1] (after 4 weeks) is listed as “Melted”. Also, the “Storage State” value in data set [1] (after 12 weeks) is “Melted”. Further, in data set [2] (fasting), the concentration at 1 h was found to be 30 ± 10 ng/mL, the concentration at 2 h stood at 30 ± 10 ng/mL, the concentration at 4 h came out at 30 ng/mL and the concentration at 8 h amounted to 30 ± 10 ng/mL. Moreover, in data set [2] (fasting), the concentration at 24 h is 40 ± 110 ng/mL and the AUC came to 780 ± 300 ng·h/mL. For the same molecule, in data set [2] (satiation), the concentration at 1 h came to 120 ± 70 ng/mL, the concentration at 2 h worked out at 170 ± 110 ng/mL, the concentration at 4 h stood at 260 ± 90 ng/mL and the concentration at 8 h amounted to 270 ± 90 ng/mL. In data set [2] (satiation), the concentration at 24 h was 110 ± 40 ng/mL and the AUC worked out at 4780 ± 1310 ng·h/mL.
